System: Diamondback moth (Plutella xylostella)
Experiment: Test Example 1: Japanese radish seed treatment, mortality of Diamondback moth larvae
Assay type: in vivo
Details: 48 h, Diamondback moth third instar larvae released 4 days after seeding, observed 2 days after release, average of two replications; for mortality at 0.01 mg: dose 0.01 mg/1 grain of seed; for mortality at 0.2 mg: dose 0.2 mg/1 grain of seed
Protocol: Each of the present fused heterocyclic compounds 3, 4, 5, 9, 15, 16, 17, 18, 19, 20, 22, 25, 72, 74, 85, 130, 399, 409, 414, 419, 443, 444, 445, 464 and 467 was dissolved in acetone (available from Wako Pure Chemical Industries, Ltd.) containing 5% (W/V) SOLGEN TW-20 (available from Daiichi-Kogyo Seiyaku Co. Ltd.) so as to give a prescribed concentration, and to prepare the testing solution.
Nine (9) grains of the Japanese raddish (Raphanus sativas var. longipinnatus) were placed in a 2 ml volume polypropylene microtube (manufactured by As One Co.) and thereto was added 18 μl of the above testing solution and the seeds in the microtube were shaken and stirred on Stirrer (Trade name: VORTEX-GENIE2, manufactured by Scientific Industries, Inc.). After the testing solution was spread uniformly to the whole seed, the seeds were allowed to air dry.
To a 90 ml volume of plastic cup filled with ten (10) g of culture soil (Trade name: Aisai No. 1; available from Katakura Chikkarin Co., Ltd.) was added water (5 ml) and thereto was seeded three (3) grains of the above seeds.
At four days after the seeding, Diamondback moth (Plutella xylostella) at the third instar larval stages were released in a ratio of 10 (ten) heads of insects per the cup, and then the cups were covered with nylon gauze and covered with a lid (hereinafter, referred to as “treated group”).
On the other hand, Japanese raddish was seeded by the similar procedures to the treated group except that the present fused heterocyclic compound was not dissolved in acetone (available from Wako Pure Chemical Industries, Ltd.) containing 5% (W/V) SOLGEN TW-20 (available from Daiichi-Kogyo Seiyaku Co. Ltd.), and the larvae were released, and the cups were covered with a lid (hereinafter, referred to as “Untreated group”).
At two days after the release, the surviving and death of the larvae were observed and on basis of the results of the observation, the mortalities of both groups were calculated by the following equation 1), respectively. Two replication tests were performed on each group. The average value is shown below. Mortality (%)=(Total number of […])/Total number of Tested insects×100 Equation 1)

| Structure (SMILES) | mortality at 0.01 mg | mortality at 0.2 mg |
| --- | --- | --- |
| CCS(=O)(=O)c1cccnc1-c1nc2cc(C(F)(F)F)cnc2n1C [Present fused heterocyclic compound 3, 2-(3-ethylsulfonylpyridin-2-yl)-3-methyl-6-trifluoromethyl-3H-imidazo[4,5-b]pyridine] | 100% | 100% |
| CCSc1cc(C(F)(F)F)cnc1-c1nc2cc(C(F)(F)F)cnc2n1C [Present fused heterocyclic compound 4, 2-(3-ethylsulfanyl-5-trifluoromethylpyridin-2-yl)-3-methyl-6-trifluoromethyl-3H-imidazo[4,5-b]pyridine] | 100% | 100% |
| CCS(=O)(=O)c1cc(C(F)(F)F)cnc1-c1nc2cc(C(F)(F)F)cnc2n1C [Present fused heterocyclic compound 5, 2-(3-ethylsulfonyl-5-trifluoromethylpyridin-2-yl)-3-methyl-6-trifluoromethyl-3H-imidazo[4,5-b]pyridine] | 100% | 100% |
| CCSc1cccnc1-c1nc2cc(I)cnc2n1C [Present fused heterocyclic compound 9, 2-(3-ethylsulfanyl-pyridin-2-yl)-6-iodo-3-methyl-3H-imidazo[4,5-b]pyridine] | 100% | 100% |
| CCS(=O)(=O)c1cccnc1-c1nc2cc(SC(F)(F)F)cnc2n1C [Present fused heterocyclic compound 15, 2-(3-ethylsulfonyl-pyridin-2-yl)-3-methyl-6-trifluoromethylsulfanyl-3H-imidazo[4,5-b]pyridine] | 100% | 100% |
| CCS(=O)(=O)c1cccnc1-c1nc2cc(S(=O)(=O)C(F)(F)F)cnc2n1C [Present fused heterocyclic compound 16, 2-(3-ethylsulfonyl-pyridin-2-yl)-3-methyl-6-trifluoromethylsulfonyl-3H-imidazo[4,5-b]pyridine] | 100% | 100% |
| CCSc1cc(C(F)(F)F)cnc1-c1nc2cc(C(F)(F)C(F)(F)F)cnc2n1C [Present fused heterocyclic compound 17, 2-(3-Ethylsulfanyl-5-trifluoromethyl-pyridin-2-yl)-3-methyl-6-pentafluoroethyl-3H-imidazo[4,5-b]pyridine] | 100% | 100% |
| CC[S+]([O-])c1cc(C(F)(F)F)cnc1-c1nc2cc(C(F)(F)C(F)(F)F)cnc2n1C (stereo not drawn) [Present fused heterocyclic compound 18, 2-(3-Ethylsulfinyl-5-trifluoromethyl-pyridin-2-yl)-3-methyl-6-pentafluoroethyl-3H-imidazo[4,5-b]pyridine] | 100% | 100% |
| CCS(=O)(=O)c1cc(C(F)(F)F)cnc1-c1nc2cc(C(F)(F)C(F)(F)F)cnc2n1C [Present fused heterocyclic compound 19, 2-(3-ethylsulfonyl-5-trifluoromethyl-pyridin-2-yl)-3-methyl-6-pentafluoroethyl-3H-imidazo[4,5-b]pyridine] | 100% | 100% |
| CCS(=O)(=O)c1cccnc1-c1nc2cc([S+]([O-])C(F)(F)F)cnc2n1C (stereo not drawn) [Present fused heterocyclic compound 20, 2-(3-ethylsulfonyl-pyridin-2-yl)-3-methyl-6-trifluoromethylsulfinyl-3H-imidazo[4,5-b]pyridine] | 100% | 100% |
| CCS(=O)(=O)c1cccnc1-c1nc2cc(C(F)(F)F)c[n+]([O-])c2s1 [Present fused heterocyclic compound 22, 2-(3-ethylsulfonyl-2-yl)-6-(trifluoromethyl)thiazolo[5,4-b]pyridine 4-oxide] | 100% | 100% |
| CCS(=O)(=O)c1cc(C(F)(F)F)cnc1-c1nc2cc(S(=O)(=O)C(F)(F)F)cnc2n1C [Present fused heterocyclic compound 25, 2-(3-Ethylsulfonyl-5-trifluoromethyl-pyridin-2-yl)-3-methyl-6-trifluoromethylsulfonyl-3H-imidazo[4,5-b]pyridine] | 100% | 100% |
| CCS(=O)(=O)c1cc(C(F)(F)C(F)(F)F)cnc1-c1nc2cc(C(F)(F)F)cnc2n1C [Present fused heterocyclic compound 72, 2-(3-ethylsulfonyl-5-pentafluoroethylpyridin-2-yl)-3-methyl-6-trifluoromethyl-3H-imidazo[4,5-b]pyridine] | 100% | 100% |
| CCS(=O)(=O)c1cc(C(F)(F)C(F)(F)F)cnc1-c1nc2cc(C(F)(F)C(F)(F)F)cnc2n1C [Present fused heterocyclic compound 74, 2-(3-ethylsulfonyl-5-pentafluoroethylpyridin-2-yl)-3-methyl-6-pentafluoroethyl-3H-imidazo[4,5-b]pyridine] | 100% | 100% |
| CCS(=O)(=O)c1cccnc1-c1nc2cc(C(F)(F)F)ccc2o1 [Present fused heterocyclic compound 85, 2-(3-Ethylsulfonylpyridin-2-yl)-5-trifluoromethyl-benzoxazole] | 90% | 95% |
| CCS(=O)(=O)c1cccnc1-c1nc2cc(C(F)(F)F)cc(C#N)c2n1C [Present fused heterocyclic compound 130, 7-Cyano-2-(3-ethylsulfonylpyridin-2-yl)-1-methyl-5-trifluoromethyl-1H-benzimidazole] | 100% | 80% |
| CCS(=O)(=O)c1cc(C(F)(F)F)cnc1-c1nc2cc(C(F)(F)F)c(C#N)nc2n1C [Present fused heterocyclic compound 399, 5-cyano-2-(3-ethylsulfonyl-5-trifluoromethylpyridin-2-yl)-3-methyl-6-trifluoromethyl-3H-imidazo[4,5-b]pyridine] | 90% | 95% |
| CCS(=O)(=O)c1cc(C(F)(F)F)cnc1-c1nc2cc(C(F)(F)C(F)(F)F)c[n+]([O-])c2n1C [Present fused heterocyclic compound 409, 2-(3-ethylsulfonyl-5-trifluoromethyl-pyridin-2-yl)-3-methyl-6-pentafluoroethyl-3H-imidazo[4,5-b]pyridine 4-oxide] | 100% | 100% |
| CCS(=O)(=O)c1cc(C(OC)(OC)OC)cnc1-c1nc2cc(C(F)(F)C(F)(F)F)cnc2n1C [Present fused heterocyclic compound 414, 2-(3-ethylsulfonyl-5-trimethoxymethyl-pyridin-2-yl)-3-methyl-6-pentafluoroethyl-3H-imidazo[4,5-b]pyridine] | 95% | 100% |
| Cn1c(-c2ncc(C(F)(F)F)cc2S(C)(=O)=O)nc2cc(C(F)(F)C(F)(F)F)cnc21 [Present fused heterocyclic compound 419, 2-(3-Methylsulfonyl-5-trifluoromethylpyridin-2-yl)-3-methyl-6-pentafluoroethyl-3H-imidazo[4,5-b]pyridine] | 100% | 100% |
| CCS(=O)(=O)c1cccnc1-c1nc2cc(SC(F)(F)F)ccc2o1 [Present fused heterocyclic compound 443, 2-(3-ethylsulfonylpyridin-2-yl)-5-(trifluoromethylsulfanyl)benzoxazole] | 100% | 100% |
| CCS(=O)(=O)c1cccnc1-c1nc2cc([S+]([O-])C(F)(F)F)ccc2o1 (stereo not drawn) [Present fused heterocyclic compound 444, 2-(3-ethylsulfonylpyridin-2-yl)-5-(trifluoromethylsulfinyl)benzoxazole] | 100% | 100% |
| CCS(=O)(=O)c1cccnc1-c1nc2cc(S(=O)(=O)C(F)(F)F)ccc2o1 [Present fused heterocyclic compound 445, 2-(3-ethylsulfonylpyridin-2-yl)-5-(trifluoromethylsulfonyl)benzoxazole] | 100% | 100% |
| CCS(=O)(=O)c1cccnc1-c1nc2cc(C(F)(F)C(F)(F)F)cnc2o1 [Present fused heterocyclic compound 464, 2-(3-Ethylsulfonylpyridin-2-yl)-6-pentafluoroethyl-oxazolo[5,4-b]pyridine] | 100% | 100% |

From US9883675B2, “Method for controlling pests” (SUMITOMO CHEMICAL COMPANY, LIMITED, priority 2013, dated 2018)
